Literature values as cited in publication PMC7582876, “Antiproliferative Properties of a Few Auranofin-Related Gold(I) and Silver(I) Complexes in Leukemia Cells and their Interferences with the Ubiquitin Proteasome System” (Molecules, 2020).

Test system: CEM/ADR5000 cells
Design: method as in PMID 18413831
Conditions: ref [27]; cited from earlier work

COc1cccc2c1C(=O)c1c(O)c3c(c(O)c1C2=O)C[C@@](O)(C(=O)CO)C[C@@H]3O[C@H]1C[C@H](N)[C@H](O)[C@H](C)O1 [doxorubicin, Doxorubicin]
resistance to doxorubicin: more than 1000 fold
